This test relates to Pancreas carcinoma cells. The test can be described thus: Cancer cell invasion assay on humanized rats with implanted pancreas carcinoma cells. The test is classed as in vivo. The following applies: pancreas carcinoma implant. As for the experimental part:
The cancer cell invasion assay was performed on humanized rats (Eyol, E. et al., Oncology Reports, 28: 2177-2187, 2012). Pancreas carcinoma cells were implanted. The successful implant was observed by luminescent imaging as well as by an increase in CXCR4 expression.
After a successful implant of carcinoma cells, the rats were treated with a peptide according to SEQ ID No. 1. The results after 1 week of therapy (1 w of therapy), after 2 weeks of therapy (2 w of therapy) and 2 weeks after end of therapy are depicted in the below table.

On to LVRYTQKAPQVS (human) [SEQ ID No. 1], for which the “Tumor growth / remission” value runs as follows: (10 mg peptide, 1 w of therapy) “No tumor growth”; (20 mg peptide, 1 w of therapy) “No tumor growth”; (20 mg peptide, 2 w after end of therapy) “Complete”; (20 mg peptide, 2 w of therapy) “Complete”; (70 mg peptide, 1 w of therapy) “No tumor growth”; (70 mg peptide, 2 w after end of therapy) “Complete”. Moreover, the “Tumor growth / remission” value (70 mg peptide, 2 w of therapy) is on record as “Remission”.

These data come from patent US20210395306A1, “POLYPEPTIDES FOR THE TREATMENT OF STRESS, IMMUNOREACTION AND STROKE SYNDROMES” (Neopep Pharma GmbH & Co. KG, priority 2018, published 2021).
